Earlier results in patent publication US9555001B2, “Pharmaceutical composition and uses thereof” (Boehringer Ingelheim International GmbH, priority 2012, dated 2017).

Conditions: crystalline form described in WO 2006/117359

OC[C@H]1O[C@@H](c2ccc(Cl)c(Cc3ccc(O[C@H]4CCOC4)cc3)c2)[C@H](O)[C@@H](O)[C@@H]1O [Compound “A”, 1-chloro-4-(β-D-glucopyranos-1-yl)-2-[4-((S)-tetrahydrofuran-3-yloxy)-benzyl]-benzene]
physico-chemical stability: physico-chemically stable | solubility: good solubility properties
